Assay results published in patent US6737383B1, “Herbicidal oxadiazolidines” (priority 1999, dated 2004).

Columns and labels:
[1] = test system: downy brome; test: Test E downy brome; type: in vivo, Bromus tectorum; conditions: Preemergence
[2] = test system: downy brome; test: Test E downy brome; type: in vivo, Bromus tectorum; conditions: Postemergence; for Plant response rating, Downy brome: 0 to 100 scale; for Plant response rating, Downy brortie: Rate 250 g/ha, 0 to 100 scale (0 no effect, 100 complete control)
Procedure, shortened: (§1)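 Visual evaluation versus untreated controls after about 21 to 28 days in the greenhouse. Compound was in a surfactant-containing non-phytotoxic solvent; postemergence plants were treated at the 1- to 4-leaf stage, grown in a 60:40 sandy loam and potting mix blend.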

[3] = test system: black nightshade; test: Test E black nightshade; type: in vivo, Solanum nigra; conditions: Postemergence
Procedure: (§2) Compounds evaluated in this test were formulated in a non-phytotoxic solvent mixture which included a surfactant and applied to plants that were in the 1- to 4-leaf stage (postemergence application). A mixture of sandy loam soil and greenhouse potting mix in a 60:40 ratio was used for the postemergence test.
(§3) Plantings of these crops and weed species were adjusted to produce plants of appropriate size for the postemergence test. All plant species were grown using normal greenhouse practices. Crop and weed species include annual bluegrass (Poa annua), blackgrass (Alopecurus myosuroides), black nightshade (Solanum nigra), chickweed (Stellaria media), common poppy (Papaver rhoeas), deadnettle (Lamium amplexicaule), downy brome (Bromus tectorum), field violet (Viola arvensis), galium (Galium aparine), green foxtail (Setaria viridis), Italian ryegrass (Lolium multiflorum), jointed goatgrass (Aegilops cylindrica), kochia (Kochia scoparia), lambsquarters (Chenopodium album), littleseed canarygrass (Phalaris minor), rape (Brassica napus), redroot pigweed (Amaranthus retroflexus), Russian thistle (Salsola kali), scentless chamomile (Matricaria inodora), spring barley (Hordeum vulgare), sugar beet (Beta vulgaris), sunflower (Helianthus annuus), ivyleaf speedwell (Veronica hederaefolia), spring wheat (Triticum aestivum), winter wheat (Triticum aestivum), wild buckwheat (Polygonum convolvulus), wild mustard (Sinapis arvensis), wild oat (Avena fatua), windgrass (Apera spica-venti) and winter barley (Hordeum vulgare).
(§4) Treated plants and untreated controls were maintained in a greenhouse for approximately 21 to 28 days, after which all treated plants were compared to untreated controls and visually evaluated. […] A dash response (-) means no test result.

[4] = test system: annual bluegrass; test: Test E annual bluegrass; type: in vivo, Poa annua; conditions: Postemergence
Procedure: as §2, §3, §4

[5] = test system: lambsquarters; test: Test E lambsquarters; type: in vivo, Chenopodium album; conditions: Postemergence
Procedure, shortened: as §1

[6] = test system: arrowleaf sida; test: Test C postemergence arrowleaf sida; type: in vivo, Sida rhombifolia; conditions: 0 to 100 scale, 0 no effect, 100 complete control
Procedure: as §2, with “grown for various periods of time before treatment” for “in the 1- to 4-leaf stage”
Plantings of these crops and weed species were adjusted to produce plants of appropriate size for the postemergence test. All plant species were grown using normal greenhouse practices. Crop and weed species include arrowleaf sida (Sida rhombifolia), barnyardgrass (Echinochloa crus-galli), cocklebur (Xanthium strumarium), common ragweed (Ambrosia elatior), corn (Zea mays), cotton (Gossypium hirsutum), eastern black nightshade (Solanum ptycanthum), fall panicum (Panicum dichotomiflorum), field bindweed (Convolvulus arvensis), giant foxtail (Setaria faberii), hairy beggarticks (Bidens pilosa), ivyleaf morningglory (Ipomoea hederacea), johnsongrass (Sorghum halepense), ladysthumb smartweed (Polygonum persicaria), lambsquarters (Chenopodium album), large crabgrass (Digitaria sanguinalis), purple nutsedge (Cyperus rotundus), redroot pigweed (Amaranthus retroflexus), soybean (Glycine max), surinam grass (Brachiaria decumbens), velvetleaf (Abutilon theophrasti) and wild poinsettia (Euphorbia heterophylla).
Treated plants and untreated controls were maintained in a greenhouse for approximately 14, to 21 days, after which all treated plants were compared to untreated controls and visually evaluated. Plant response ratings, summarized in Table C, were based upon a 0 to 100 scale where 0 was no effect and 100 was complete control. A dash response (−) means no test result.

[7] = test system: common ragweed; test: Test C postemergence common ragweed; type: in vivo, Ambrosia elatior; conditions: 0 to 100 scale, 0 no effect, 100 complete control
Procedure, shortened: (§5)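 Greenhouse postemergence test: compound applied in solvent/surfactant formulation to established plants; visual scoring 0–100 against untreated controls after roughly two to three weeks (14–21 days).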

[8] = test system: sugar beet; test: Test E sugar beet; type: in vivo, Beta vulgaris; conditions: Postemergence
Procedure: as §2, §3, §4

[9] = test system: johnsongrass; test: Test C postemergence johnsongrass; type: in vivo, Sorghum halepense; conditions: 0 to 100 scale, 0 no effect, 100 complete control
Procedure, shortened: as §5

[10] = test system: scentless chamomile; test: Test E scentless chamomile; type: in vivo, Matricaria inodora; conditions: Postemergence
Procedure, shortened: as §1

[11] = test system: field violet; test: Test E field violet; type: in vivo, Viola arvensis; conditions: Preemergence
[12] = test system: Italian ryegrass; test: Test E Italian ryegrass; type: in vivo, Lolium multiflorum; conditions: Postemergence
Procedure, shortened: as §1

[13] = test system: spring barley; test: Test E spring barley; type: in vivo, Hordeum vulgare; conditions: Postemergence
Procedure, shortened: as §1

[14] = test system: surinam grass; test: Test C postemergence surinam grass; type: in vivo, Brachiaria decumbens; conditions: 0 to 100 scale, 0 no effect, 100 complete control
Procedure, shortened: as §5

[15] = test system: morningglory; test: Test A morningglory; type: in vivo, Ipomoea spp.; conditions: 0 to 10 scale where 0 is no effect and 10 is complete control
Procedure, shortened: (§6)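 Injury scored visually after about eleven greenhouse days against untreated plants, 0 = no effect, 10 = complete control. Compounds, formulated in surfactant-containing non-phytotoxic solvent, were applied as preemergence soil drench to sandy loam plantings and as postemergence runoff spray at the 1–2 leaf stage.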

[16] = test system: velvetleaf; test: Test A velvetleaf; type: in vivo, Abutilon theophrasti; conditions: 0 to 10 scale where 0 is no effect and 10 is complete control
Procedure, shortened: as §6

[17] = Rate 62 g/ha, 0 to 100 scale, 0 no effect, 100 complete control
[18] = Rate 125 g/ha, 0 to 100 scale (0 no effect, 100 complete control)
[19] = Rate 250 g/ha, 0 to 100 scale (0 no effect, 100 complete control)
[20] = Rate 500 g/ha, 0 to 100 scale where 0 is no effect and 100 is complete control
[21] = Rate 500 g/ha, 0 to 100 scale, 0 no effect, 100 complete control

SMILES: CCn1c(=O)on(C(=O)N(c2ccc(F)cc2)C(C)C)c1=O [Compound 107]
- Plant response rating, Downy brome [1, 17]: 50
- Plant response rating, Downy brome [1, 18]: 60
- Plant response rating, Downy brome ([1]; Rate 250 g/ha, 0 to 100 scale): 75
- Plant response rating, Downy brome ([2]; Rate 62 g/ha): 0
- Plant response rating, Downy brome ([2]; Rate 125 g/ha): 10
- Plant response rating, Downy brortie [2]: 0
- Plant response rating, Blk nightshade ([3]; Rate 62 g/ha, 0 to 100 scale): 10
- Plant response rating, Blk nightshade ([3]; Rate 125 g/ha, 0 to 100 scale): 30
- Plant response rating, Blk nightshade [3, 19]: 60
- Plant response rating, Annual bluegras ([4]; Rate 62 g/ha, 0 to 100 scale): 20
- Plant response rating, Annual bluegras ([4]; Rate 125 g/ha, 0 to 100 scale): 5
- Plant response rating, Annual bluegras [4, 19]: 50
- Plant response rating, Lambsquarters ([5]; Rate 62 g/ha, 0 to 100 scale): 15
- Plant response rating, Lambsquarters ([5]; Rate 125 g/ha, 0 to 100 scale): 15
- Plant response rating, Lambsquarters [5, 19]: 5
- Plant response rating Arrowleaf sida ([6]; Rate 280 g/ha): 30
- Plant response rating Arrowleaf sida ([6]; Rate 560 g/ha): 75
- Plant response rating Arrowleaf sida ([6]; Rate 1120 g/ha): 85
- Plant response rating Common ragweed ([7]; Rate 140 g/ha): 0
- Plant response rating Common ragweed ([7]; Rate 280 g/ha): 50
- Plant response rating Common ragweed ([7]; Rate 560 g/ha): 50
- Plant response rating Common ragweed ([7]; Rate 1120 g/ha): 50
- Plant response rating, Sugar beet ([8]; Rate 62 g/ha, 0 to 100 scale): 10
- Plant response rating, Sugar beet ([8]; Rate 125 g/ha, 0 to 100 scale): 10
- Plant response rating, Sugar beet [8, 19]: 40
- Plant response rating Johnsongrass ([9]; Rate 140 g/ha): 35
- Plant response rating Johnsongrass ([9]; Rate 280 g/ha): 50
- Plant response rating Johnsongrass ([9]; Rate 560 g/ha): 90
- Plant response rating Johnsongrass ([9]; Rate 1120 g/ha): 90
- Plant response rating, Scentless chamo ([10]; Rate 62 g/ha, 0 to 100 scale): 10
- Plant response rating, Scentless chamo ([10]; Rate 125 g/ha, 0 to 100 scale): 0
- Plant response rating, Scentless chamo [10, 19]: 10
- Plant response rating, Field violet [11, 17]: 70
- Plant response rating, Field violet [11, 18]: 30
- Plant response rating, Field violet ([11]; Rate 250 g/ha, 0 to 100 scale): 20
- Plant response rating, I. Ryegrass ([12]; Rate 62 g/ha, 0 to 100 scale): 0
- Plant response rating, I. Ryegrass ([12]; Rate 125 g/ha, 0 to 100 scale): 50
- Plant response rating, I. Ryegrass [12, 19]: 30
- Plant response rating, Spring Barley ([13]; Rate 62 g/ha, 0 to 100 scale): 20
- Plant response rating, Spring Barley ([13]; Rate 125 g/ha, 0 to 100 scale): 0
- Plant response rating, Spring Barley [13, 19]: 30
- Plant response rating, Surinam grass ([14]; Rate 140 g/ha): 10
- Plant response rating, Surinam grass ([14]; Rate 280 g/ha): 70
- Plant response rating, Surinam grass ([14]; Rate 560 g/ha): 80
- Plant response rating, Surinam grass ([14]; Rate 1120 g/ha): 95

SMILES: CCn1c(=O)on(C(=O)N(c2ccc(F)cc2F)C(C)C)c1=O [Compound 116]
- Plant response rating, Downy brome [1, 18]: 60
- Plant response rating, Downy brome ([1]; Rate 250 g/ha, 0 to 100 scale): 50
- Plant response rating, Downy brome [1, 20]: 70
- Plant response rating, Downy brome ([2]; Rate 62 g/ha): 0
- Plant response rating, Downy brome ([2]; Rate 125 g/ha): 0
- Plant response rating, Downy brortie [2]: 30
- Plant response rating, Downy brome ([2]; Rate 500 g/ha, 0 no effect, 100 complete control): 60
- Plant response rating, Blk nightshade ([3]; Rate 62 g/ha, 0 to 100 scale): 10
- Plant response rating, Blk nightshade ([3]; Rate 125 g/ha, 0 to 100 scale): 50
- Plant response rating, Blk nightshade [3, 19]: 50
- Plant response rating, Blk nightshade [3, 21]: 60
- Plant response rating, Annual bluegras ([4]; Rate 62 g/ha, 0 to 100 scale): 100
- Plant response rating, Annual bluegras ([4]; Rate 125 g/ha, 0 to 100 scale): 50
- Plant response rating, Annual bluegras [4, 19]: 70
- Plant response rating, Annual bluegras [4, 21]: 75
- Plant response rating, Lambsquarters ([5]; Rate 62 g/ha, 0 to 100 scale): 20
- Plant response rating, Lambsquarters ([5]; Rate 125 g/ha, 0 to 100 scale): 30
- Plant response rating, Lambsquarters [5, 19]: 0
- Plant response rating, Lambsquarters [5, 21]: 0
- Plant response rating Arrowleaf sida ([6]; Rate 140 g/ha): 0
- Plant response rating Arrowleaf sida ([6]; Rate 560 g/ha): 85
- Plant response rating Arrowleaf sida ([6]; Rate 1120 g/ha): 90
- Plant response rating Common ragweed ([7]; Rate 140 g/ha): 0
- Plant response rating Common ragweed ([7]; Rate 280 g/ha): 0
- Plant response rating Common ragweed ([7]; Rate 560 g/ha): 0
- Plant response rating Common ragweed ([7]; Rate 1120 g/ha): 0
- Plant response rating, Sugar beet ([8]; Rate 62 g/ha, 0 to 100 scale): 0
- Plant response rating, Sugar beet ([8]; Rate 125 g/ha, 0 to 100 scale): 0
- Plant response rating, Sugar beet [8, 19]: 0
- Plant response rating, Sugar beet [8, 21]: 0
- Plant response rating Johnsongrass ([9]; Rate 140 g/ha): 10
- Plant response rating Johnsongrass ([9]; Rate 280 g/ha): 40
- Plant response rating Johnsongrass ([9]; Rate 560 g/ha): 60
- Plant response rating Johnsongrass ([9]; Rate 1120 g/ha): 80
- Plant response rating, Scentless chamo ([10]; Rate 62 g/ha, 0 to 100 scale): 50
- Plant response rating, Scentless chamo ([10]; Rate 125 g/ha, 0 to 100 scale): 0
- Plant response rating, Scentless chamo [10, 19]: 0
- Plant response rating, Scentless chamo [10, 21]: 40
- Plant response rating, Field violet [11, 18]: 50
- Plant response rating, Field violet ([11]; Rate 250 g/ha, 0 to 100 scale): 40
- Plant response rating, Field violet [11, 20]: 90
- Plant response rating, I. Ryegrass ([12]; Rate 62 g/ha, 0 to 100 scale): 0
- Plant response rating, I. Ryegrass ([12]; Rate 125 g/ha, 0 to 100 scale): 50
- Plant response rating, I. Ryegrass [12, 19]: 70
- Plant response rating, I. Ryegrass [12, 21]: 0
- Plant response rating, Spring Barley ([13]; Rate 62 g/ha, 0 to 100 scale): 5
- Plant response rating, Spring Barley ([13]; Rate 125 g/ha, 0 to 100 scale): 0
- Plant response rating, Spring Barley [13, 19]: 10
- Plant response rating, Spring Barley [13, 21]: 0
- Plant response rating, Surinam grass ([14]; Rate 140 g/ha): 0
- Plant response rating, Surinam grass ([14]; Rate 280 g/ha): 0
- Plant response rating, Surinam grass ([14]; Rate 1120 g/ha): 90

SMILES: CCOC(=O)Cn1c(=O)on(C(=O)N(c2ccc(F)cc2)C(C)C)c1=O [Compound 128]
- Plant response rating, Morningglory ([15]; Postemergence, Rate 1000 g/ha): 0
- Plant response rating, Morningglory ([15]; Pre-emergence, Rate 2000 g/ha): 0
- Plant response rating, Velvetleaf ([16]; Postemergence, Rate 1000 g/ha): 0
- Plant response rating, Velvetleaf ([16]; Pre-emergence, Rate 2000 g/ha): 0

SMILES: Cc1ccccc1Cn1c(=O)on(C(=O)N(c2ccc(Cl)cc2)C(C)C)c1=O [Compound 136]
- Plant response rating, Morningglory ([15]; Postemergence, Rate 1000 g/ha): 9
- Plant response rating, Morningglory ([15]; Pre-emergence, Rate 2000 g/ha): 0
- Plant response rating, Velvetleaf ([16]; Postemergence, Rate 1000 g/ha): 2
- Plant response rating, Velvetleaf ([16]; Pre-emergence, Rate 2000 g/ha): 0
